{
  "source": "patent US6946442B2",
  "about": "“Method of hastening cervical ripening” (priority 1994, dated 2005)",
  "key": {"[1]": {"system": "VEGF165 mRNA", "test": "Northern blot hybridisation, VEGF165 mRNA in non-pregnant cervical tissue explants", "format": "cell-based, human", "details": "48 hours", "method": "Human uterine non-pregnant cervix tissue was obtained from non-malignant hysterectomies. The samples were maintained in phenol red free culture media DMEM supplemented with penicillin (1%), streptomycin (1%) and L-Glutamine (1%) and transferred to the laboratory on ice. The biopsies were washed in ice-cold saline solution then cut into small sections 1 to 2 mm and incubated in the above culture medium in 60×15 mm petri dishes at 37° C. in 5% CO2/95% air. Progesterone (P2) was added to the culture medium at concentrations of 10^−4, 10^−6 and 10^−8 M. 17−β Estradiol (E2) was added to the culture medium either alone at concentrations of 10^−6, 10^−7 and 10^−8 M or for 2 hours to prime the cervical explants at a concentration of 10^−7 M, followed by addition of Progesterone (P2) at concentrations ranging from 10^31 4 to 10^−8 M. The effect of VEGF165 (1, 10, 50, 100, 200 ng/ml) and PAF (10^−6−10^−10 M) in the non-pregnant cervical explants was also investigated. This culture system was chosen because it allows study of the intact tissues in their own matrix and avoids the potentially artefact-producing procedures of cell dispersion and culture. In this system, the cells remain intact for at least 5 days. RNA (40 μg/lane) was loaded onto a 1.2% agarose/formaldehyde gel, electrophoretically separated, transferred onto Hybond nylon membranes, and immobilised by exposure to U.V. light for 5 min. Membranes were prehybridized at 42° C. for 8 hours in a solution containing 50% formamide, 5×SSC, 5×Denhardt's solution, 0.5% SDS and salmon sperm DNA at 150 μg/ml. The VEGF165 cDNA was labelled with [α-^32P]dCTP by random-primer extension. 18s oligonucleotide probe labelled by T4 polynucleotide kinase with […] was used to determine the relative amount of RNA loaded in each lane by rehybridizing the blots that have previously been probed with VEGF165. Hybridisation was done under the same conditions with the labelled probe for 18 hours at 42° C. […]"}, "[2]": {"system": "VEGF protein expression", "test": "Western blot analysis, VEGF protein expression in non-pregnant cervical explants and culture medium", "format": "cell-based, human", "method": "Human uterine non-pregnant cervix tissue was obtained from non-malignant hysterectomies. The samples were maintained in phenol red free culture media DMEM supplemented with penicillin (1%), streptomycin (1%) and L-Glutamine (1%) and transferred to the laboratory on ice. The biopsies were washed in ice-cold saline solution then cut into small sections 1 to 2 mm and incubated in the above culture medium in 60×15 mm petri dishes at 37° C. in 5% CO2/95% air. Progesterone (P2) was added to the culture medium at concentrations of 10^−4, 10^−6 and 10^−8 M. 17−β Estradiol (E2) was added to the culture medium either alone at concentrations of 10^−6, […] M, followed by addition of Progesterone (P2) at concentrations ranging from 10^31 4 to 10^−8 M. The effect of VEGF165 (1, 10, 50, 100, 200 ng/ml) and PAF (10^−6−10^−10 M) in the non-pregnant cervical explants was also investigated. This culture system was chosen because it allows study of the intact tissues in their own matrix and avoids the potentially artefact-producing procedures of cell dispersion and culture.\nCervical tissue, after having been stimulated with VEGF165 or PAF for 24 hours or with the ovarian steroid hormones, 17β-estradiol (E2) and progesterone (P2), for 48 hours, was washed twice in ice-cold PBS and homogenised in ice-cold, high salt lysis buffer (containing 0.4 M KCl, 20 mM HEPES, 1 mM DTT, 20% glycerol, 0.5 mg/ml Bacitracin, 40 μg/ml PMSF, 5 μg/ml Peptastin, 5 μg/ml Leupeptin). Homogenates were centrifuged at 12,000 revolutions/min for 15 minutes and the supernatants containing extracted protein were collected. The culture medium used to incubate the tissue with or without E2, P2 or E2+P2 was also collected, centrifuged. To the supernatant, 3 volumes of ethanol were added and stored at −70° C. for at least 5 hours. Then, the culture medium/ethanol suspension was centrifuged at 10,000 rpm for 10 min and the pellet containing the protein was resuspended in lysis buffer. Total protein, extracted from both tissue and medium, was quantified with the Bio-Rad protein assay, and 500 ng of protein from each sample was diluted in loading buffer (containing 0.02 M Tris-HCl, 0.002 M EDTA, 2% SDS, 10% mercaptoethanol, 20% glycerol, bromophenol blue). Samples were subjected to electrophoresis in a 12% polyacrylamide gel with 5% stacking gel and transferred overnight at 36V onto a nitrocellulose membrane. The membrane was blocked at RT with 1% skimmed milk in Tris-buffered saline solution before incubation with an antiserum (diluted 1:500) directed against the rabbit VEGF165 at 4° C. After a 15 min. wash and 2×5 min. washes with Tris-buffered saline solution at room temperature (RT), the membrane was incubated in an anti-rabbit secondary Ab conjugated to alkaline phosphatase. In case of Western blotting experiments for Connexin-43, the membrane was blocked overnight at 4° C. in blocking buffer (1% BSA in 10 mM Tris pH 7.5, 100 mM NaCl, 0.1% Tween 20), before incubation with a monoclonal antibody directed against Connexin-43 again overnight at 4° C. After a 6×5 min. washes with Tris-buffered saline solution, the membrane was incubated in a mouse secondary Ab conjugated to alkaline phosphatase. A chemiluminescence system (ECL-Amersham) was used to visualise the presence of VEGF165, Connexin-43 or Flt-1 protein. This is a highly sensitive and quantitative assay for detecting proteins immobilised on membranes.\nCervical tissue explants in culture medium were exposed to various concentrations of the ovarian steroid hormones, 17β-estradiol (E2) and progesterone (P2), for 48 hours, followed by extraction of protein from the tissue as well as the culture medium."}, "[3]": {"system": "pregnant rats", "test": "Preterm delivery induced by progesterone receptor antagonist in pregnant rats", "format": "in vivo, Sprague-Dawley rats", "details": "10 mg s.c. on day 19, in 24 h", "method": "Treatments (Protocols A and B): Mouse recombinant VEGF164 (the murine equivalent of human VEGF165) was dissolved at a concentration of 10 and 100 ng/ml gel. Control animals received applications of gel only. Some animals were injected on day 19 s.c. with 10 mg progesterone receptor antagonist RU486, a protocol which induces in 24 h preterm delivery in 80% of animals."}, "[4]": {"system": "Connexin-43", "details": "non-pregnant myometrial explants, FIG. 11A", "method": "Cervical tissue, after having been stimulated with VEGF165 or PAF for 24 hours or with the ovarian steroid hormones, 17β-estradiol (E2) and progesterone (P2), for 48 hours, was washed twice in ice-cold PBS and homogenised in ice-cold, high salt lysis buffer (containing 0.4 M KCl, 20 mM HEPES, 1 mM DTT, 20% glycerol, 0.5 mg/ml Bacitracin, 40 μg/ml PMSF, 5 μg/ml Peptastin, 5 μg/ml Leupeptin). Homogenates were centrifuged at 12,000 revolutions/min for 15 minutes and the supernatants containing extracted protein were collected. The culture medium used to incubate the tissue with or without E2, P2 or E2+P2 was also collected, centrifuged. To the supernatant, 3 volumes of ethanol were added and stored at −70° C. for at least 5 hours. Then, the culture medium/ethanol suspension was centrifuged at 10,000 rpm for 10 min and the pellet containing the protein was resuspended in lysis buffer. Total protein, extracted from both tissue and medium, was quantified with the Bio-Rad protein assay, and 500 ng of protein from each sample was diluted in loading buffer (containing 0.02 M Tris-HCl, 0.002 M EDTA, 2% SDS, 10% mercaptoethanol, 20% glycerol, bromophenol blue). […] This is a highly sensitive and quantitative assay for detecting proteins immobilised on membranes."}, "[5]": {"system": "Connexin-43", "test": "Western blot, Connexin-43 expression in non-pregnant cervical explants", "format": "cell-based, human", "method": "Human uterine non-pregnant cervix tissue was obtained from non-malignant hysterectomies. The samples were maintained in phenol red free culture media DMEM supplemented with penicillin (1%), streptomycin (1%) and L-Glutamine (1%) and transferred to the laboratory on ice. The biopsies were washed in ice-cold saline solution then cut into small sections 1 to 2 mm and incubated in the above culture medium in 60×15 mm petri dishes at 37° C. in 5% CO2/95% air. Progesterone (P2) was added to the culture medium at concentrations of 10^−4, 10^−6 and 10^−8 M. 17−β Estradiol (E2) was added to the culture medium either alone at concentrations of 10^−6, 10^−7 and 10^−8 M or for 2 hours to prime the cervical explants at a concentration of 10^−7 M, followed by addition of Progesterone (P2) at concentrations ranging from 10^31 4 to 10^−8 M. The effect of VEGF165 (1, 10, 50, 100, 200 ng/ml) and PAF (10^−6−10^−10 M) in the non-pregnant cervical explants was also investigated. This culture system was chosen because it allows study of the intact tissues in their own matrix and avoids the potentially artefact-producing procedures of cell dispersion and culture. In this system, the cells remain intact for at least 5 days."}, "[6]": {"system": "rat cervix", "test": "Tensile properties (stress-strain, extensibility) of isolated cervix after intravaginal treatment of pregnant rats", "format": "in vivo, Sprague-Dawley rats", "details": "for cervical extensibility: 100 ng/ml gel intravaginally", "method": "Control animals received applications of gel only.\nThe tensile properties of the isolated cervix were evaluated using the Shimadzu EZ-Test instrumentation using a test regimen which mimicked the conditions during labour. Briefly, the cervix was suspended between two hooks by means of threads passed through the cervical canal. It was then placed in a 40 ml tissue bath containing 10 mM HEPES/PBS solution (pH=7.4) maintained at 25° C. […] Each cervix was allowed 30 min. to equilibrate. The lower hook was fixed while the upper hook was movable, to simultaneously record displacement and force with a sample rate of 20 Hz. […] The upper hook was moved until a small resistance of the tissue (20 mN) was recorded after which the tester automatically moved the upper hook to incrementally stretch the cervix in steps of 0.4 mm. at 1 min. intervals. Between subsequent stretches the hook rested for 1 min. allowing the cervix to accommodate. During the accommodation periods the cervix reverted back to a relaxed state, therefore diminishing the opposed resistance and thus the tension recorded by the tester. FIG. 15 illustrates a typical stress-strain plot of a rat cervix. […] At YP permanent morphological changes and breaks in the material begin to occur. Break-point (BP) is the moment where the tissue completely breaks and the load abruptly falls toward zero. To quantify the elastic behaviour of the cervix (cervical resistance), straight lines are fitted through the linear portion of the force versus displacement curve. The slopes of the upper, lower and mid-point regression lines that are related to Young's modulus for elastic materials were used to best characterise the tensile properties of the sample. A larger slope indicates a higher resistance to dilation, therefore lower extensibility."}},
  "data": [
    {"compound": "C[C@]12CC[C@@H]3c4ccc(O)cc4CC[C@H]3[C@@H]1CC[C@@H]2O", "note": "[17β-estradiol]", "values": [
      {"measurement": "VEGF mRNA compared to Control", "setting": "[1]; 17β-estradiol alone, non-pregnant cervical explants", "value": "up-regulates"},
      {"measurement": "secreted forms of VEGF in the culture medium", "setting": "[2]; 17β-estradiol, 48 hours, culture medium", "value": "up-regulates"},
      {"measurement": "VEGF protein in the tissue itself", "setting": "[2]; 17β-estradiol, 48 hours, tissue", "value": "no effect"}
    ]},
    {"compound": "CC#C[C@]1(O)CC[C@H]2[C@@H]3CCC4=CC(=O)CCC4=C3[C@@H](c3ccc(N(C)C)cc3)C[C@@]21C", "note": "[RU486]", "values": [
      {"measurement": "preterm delivery", "setting": "[3]", "value": "80 % of animals"}
    ]},
    {"compound": "CC(=O)[C@H]1CC[C@H]2[C@@H]3CCC4=CC(=O)CC[C@]4(C)[C@H]3CC[C@]12C", "note": "[progesterone]", "values": [
      {"measurement": "VEGF mRNA", "setting": "[1]; progesterone at 10^−4 M in the presence of 10^−7 M 17β-estradiol", "value": "down-regulated"},
      {"measurement": "VEGF mRNA", "setting": "[1]; progesterone at 10^−4 M", "value": "down-regulated"},
      {"measurement": "VEGF protein expression in the culture medium", "setting": "[2]; explants primed with 17β-estradiol for 4 hours, then increasing concentration of progesterone, culture medium", "value": "dose-dependent increase"},
      {"measurement": "VEGF protein expression in the tissue", "setting": "[2]; explants primed with 17β-estradiol for 4 hours, then increasing concentration of progesterone, tissue", "value": "dose-dependent increase"},
      {"measurement": "VEGF protein in the culture medium compared with Control", "setting": "[2]; progesterone at 10^−4 M, 48 hours, culture medium", "value": "down-regulated"},
      {"measurement": "VEGF protein in the tissue itself compared with Control", "setting": "[2]; progesterone at 10^−4 M, 48 hours, tissue", "value": "down-regulated"}
    ]},
    {"compound": "VEGF", "values": [
      {"measurement": "connexin-43 expression in myometrial explants", "setting": "[4]", "value": "up-regulation"},
      {"measurement": "connexin-43 expression in cervical explants", "setting": "[5]; non-pregnant cervical explants, FIG. 11B", "value": "up-regulation"},
      {"measurement": "slope of stress-strain curve", "setting": "[6]; 10 ng/ml gel intravaginally, protocol B (day 16 to day 20), significant only when applied later in pregnancy", "value": "statistically significant decrease"},
      {"measurement": "cervical extensibility", "setting": "[6]; protocol A (day 12 to day 16)", "value": "significantly increased"},
      {"measurement": "cervical extensibility", "setting": "[6]; protocol B (day 16 to day 20)", "value": "significantly increased"}
    ]},
    {"compound": "platelet-activating factor [PAF]", "values": [
      {"measurement": "VEGF expression in non-pregnant cervix", "setting": "[2]; PAF at various concentrations, 24 hours", "value": "increases"},
      {"measurement": "connexin-43 expression in cervix", "setting": "[5]; PAF at various concentrations, non-pregnant cervix, FIG. 12", "value": "up-regulation"}
    ]}
  ]
}
